Entries after “also recorded” stand apart in the source; their conditions may differ.
Tests used:
[1] = test system: B-cells (CD20), CD3 positive lymphocytes; assay: Enumeration of B- and T-lymphocyte subpopulations in peripheral blood by flow cytometry; format: in vivo, human; conditions: 375 mg/m^2 weekly for 3 weeks, then at 12 weeks intervals
Experimental: Enumeration of B- and T-lymphocyte subpopulations in peripheral blood was done by flow cytometry using monoclonal Abs to CD19 or CD20 for B cells and monoclonal Abs to CD3, CD4, and CD8 for T cells. Sirolimus trough levels, IgG, CD3, CD4, CD8, CD19, CD20, N-terminal pro-brain natriuretic peptide, creatine kinase, creatine kinase-MB, C-reactive protein, platelets, alkaline phosphatase, gamma-glutamyl transferase, aspartate aminotransferase, and alanine aminotransferase were measured at regular intervals.

[2] = test system: anti-rAAV NAbs / GAA antibody responses; conditions: cited from earlier work
AAV1 capsid proteins = assay: ELISA for circulating antibodies to AAV1 capsid in serum of Pompe subjects; conditions: Pompe patient, rituximab with sirolimus prior to rAAV1-GAA
Experimental: Serum samples were assayed by ELISA for circulating antibodies to the AAV1 capsid proteins.
Serum samples were assayed by enzyme linked immunosorbent assay (ELISA) for circulating antibodies to the intact AAV1 capsid and hGAA protein 21, 46. Anti-AAV1 and anti-hGAA ASR and ELISPOT assay were performed as previously described on isolated peripheral blood mononuclear cells (ref. 47).

Rituximab: monoclonal antibody that induces B-cell depletion by binding the CD20 protein found on the surface of B-cells
CD20 counts (B-cells) [1]: complete depletion | GAA antibody responses to ERT ([2]; CRIM-negative infants with early-onset Pompe disease, Rituximab plus Sirolimus before initiation of ERT (Elder et al.)): able to block GAA antibody responses | existing anti-rAAV NAbs ([2]; humans receiving rituximab for rheumatoid arthritis (ref. 33) and non-human primates): successful in reduction | immune response to rAAV vector (capsid and transgene) after B-cell depletion prior to vector exposure (AAV1 capsid proteins): immune non-responsiveness; also recorded: nonresponsiveness to both capsid and transgene

Reference: patent publication US20220347297A1, “METHODS OF PERMITTING A SUBJECT TO RECEIVE MULTIPLE DOSES OF RECOMBINANT ADENO-ASSOCIATED VIRUS” (University of Florida Research Foundation, Incorporated, priority 2014, published 2022)
